Assay results taken from patent publication US6623933B1 (priority 1999, dated 2003).
“And” between values parts separate entries of the source, which are not always exact repeats. Equal values may be shown once. Where a name gives a salt, the structure may show the parent alone.

Tests used:
[1] = system: AMPA/kainate receptor (rat brain poly(A)+ RNA); assay: Kainate-evoked currents, Xenopus oocytes injected with rat brain poly(A)+ RNA; type: cell-based
NR1001/NR2B = target: T1, NR1001/NR2B (Rattus norvegicus, UniProt P35439+Q00960); assay: NMDA receptor currents in Ba-Ringer, Xenopus oocytes, Example 3; type: cell-based
T1 construct: expressed in transfected cells; host or cells: Xenopus oocytes
T1 sequence (Q00960 27-1482, other chains not shown): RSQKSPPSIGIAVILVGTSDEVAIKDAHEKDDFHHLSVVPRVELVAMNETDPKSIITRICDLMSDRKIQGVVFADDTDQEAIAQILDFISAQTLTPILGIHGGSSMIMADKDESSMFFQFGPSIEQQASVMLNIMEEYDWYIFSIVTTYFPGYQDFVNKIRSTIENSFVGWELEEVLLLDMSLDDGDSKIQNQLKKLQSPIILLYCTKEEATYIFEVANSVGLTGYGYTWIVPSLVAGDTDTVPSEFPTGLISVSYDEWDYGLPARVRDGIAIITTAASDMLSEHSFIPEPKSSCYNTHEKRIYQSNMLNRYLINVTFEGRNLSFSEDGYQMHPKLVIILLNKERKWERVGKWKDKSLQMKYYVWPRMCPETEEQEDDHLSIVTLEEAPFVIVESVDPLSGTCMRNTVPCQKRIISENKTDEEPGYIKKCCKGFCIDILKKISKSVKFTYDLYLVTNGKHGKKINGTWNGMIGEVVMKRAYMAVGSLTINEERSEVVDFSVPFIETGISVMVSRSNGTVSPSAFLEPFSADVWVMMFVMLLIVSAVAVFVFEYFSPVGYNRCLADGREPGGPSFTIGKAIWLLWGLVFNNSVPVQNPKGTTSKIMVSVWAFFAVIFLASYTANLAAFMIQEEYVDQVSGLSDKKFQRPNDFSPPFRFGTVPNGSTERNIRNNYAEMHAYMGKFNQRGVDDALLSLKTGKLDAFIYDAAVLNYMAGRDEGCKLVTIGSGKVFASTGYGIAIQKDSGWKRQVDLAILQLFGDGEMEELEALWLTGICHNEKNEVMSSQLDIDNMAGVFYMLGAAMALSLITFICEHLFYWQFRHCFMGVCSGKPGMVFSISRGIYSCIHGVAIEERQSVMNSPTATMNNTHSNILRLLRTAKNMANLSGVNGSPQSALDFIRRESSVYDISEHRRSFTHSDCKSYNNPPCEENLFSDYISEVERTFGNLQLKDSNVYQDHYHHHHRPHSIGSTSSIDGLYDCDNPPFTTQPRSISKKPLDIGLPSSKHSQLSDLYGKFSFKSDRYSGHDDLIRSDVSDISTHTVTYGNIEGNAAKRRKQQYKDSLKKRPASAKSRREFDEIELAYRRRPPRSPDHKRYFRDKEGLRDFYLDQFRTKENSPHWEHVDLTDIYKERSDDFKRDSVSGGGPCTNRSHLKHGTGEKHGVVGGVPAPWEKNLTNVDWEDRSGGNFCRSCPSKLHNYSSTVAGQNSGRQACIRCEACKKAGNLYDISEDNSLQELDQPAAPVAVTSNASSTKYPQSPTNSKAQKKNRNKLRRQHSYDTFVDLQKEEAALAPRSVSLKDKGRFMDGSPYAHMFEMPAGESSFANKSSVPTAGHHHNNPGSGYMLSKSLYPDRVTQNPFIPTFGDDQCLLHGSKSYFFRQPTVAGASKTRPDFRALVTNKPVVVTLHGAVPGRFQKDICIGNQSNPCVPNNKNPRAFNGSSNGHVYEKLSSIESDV

NR1100/NR2A [2] = assay: NMDA-induced currents of NR1 splice variants, Xenopus oocytes, Example 4; type: cell-based; conditions: 100 μM PS
Description: (§1) Overnight cultures (500 ml) of transformed bacterial cells were prepared in order to grow sufficient quantities for maxiprep isolation of the plasmid CDNA. Maxipreps were done using a Sorvall RC-5B ultracentrifuge, Qiagen columns and cDNA was quantitated with spectrophotometry (OD260 and OD260/ OD280 ratio). The resulting plasmid cDNA was linearized by digestion with an appropriate restriction enzyme that cleaves distal to the cDNA insert (XhoI for NR2A or NotI for NR1100, NR1000, NR1111, NR1011, NR1101, NR1001). […] The samples were stored at −20° C. until use.
(§2) In vitro transcription was performed using the Ambion mMessage mMachine kit with T7 (NR1100, NR1000, NR1111, NR1011, NR1101, NR1001) RNA polymerase. The reaction was assembled on ice and allowed to incubate at 37° C. for 1-2 hr. The resulting mRNA was precipitated (reaction termination) using lithium chloride/5 mM EDTA solution and dissolved in RNase-free H2O. The concentration (OD260) and OD260/OD280 ratio (should be more than 1.5) was determined by spectrophotometer. The yield of mRNA was generally 15-30 μg. mRNA was stored at −80° C. until use.
(§3) Intracellular recording microelectrodes were fabricated from 100 μl borosilicate glass disposable micropipettes using a 2-step protocol on a standard horizontal Flaming-Brown micropipette puller.

NR1/NR2C = target: T2, NR1/NR2C (Rattus norvegicus, UniProt P35439+Q00961); assay: NMDA-induced membrane currents, Xenopus oocytes, Example 7; type: cell-based
T2 construct: expressed in transfected cells; host or cells: Xenopus oocytes injected with mRNA
Description: (§5) Plasmids were linearized with appropriate restriction enzyme prior to in vitro transcription using the Message Machine kit (Ambion, Inc., Austin, Tex.).
(§6) Oocytes were injected with 50 nL of RNA solutions using an electronic microinjector (Drummond Inc., Broomall, Pa.). […] The injected oocytes were used for experiments following 1-5 days of incubation in Barth's solution at 18-20° C.
(§7) The microelectrodes were fabricated with a programmed puller (Sutter Instrument Co., Calif.) from borosilicate glass capillaries and were filled with 3 M KCl solution. The resistance of filled microelectrodes was in the range of 1-3 MΩ. […] If not mentioned otherwise, during data acquisition oocytes were clamped at a holding potential of −70 mV. The membrane current was filtered at 500 Hz and sampled at 100 Hz. Drugs were applied using a gravity driven external perfusion system. The working ,volume of the recording chamber was 30 μl and the rate of the perfusion was 50 μl/sec. The drug application lasted 10 sec and was followed by a 60 sec wash. The data acquisition and external perfusion control were done using the SuperScopeII software package (GW Instruments, Mass.). […] Peak or steady-state current measurements were normalized and expressed as a fraction of the peak or steady-state control current measurements, which were performed before and after application of every single consentration of agonist or steroid. […]

NR1/NR2D = target: T3, NR1/NR2D (Rattus norvegicus, UniProt P35439+Q62645); assay: as above; type: cell-based
T3 construct: expressed in transfected cells; host or cells: Xenopus oocytes injected with mRNA
T3 sequence (Q62645 28-1323, other chains not shown): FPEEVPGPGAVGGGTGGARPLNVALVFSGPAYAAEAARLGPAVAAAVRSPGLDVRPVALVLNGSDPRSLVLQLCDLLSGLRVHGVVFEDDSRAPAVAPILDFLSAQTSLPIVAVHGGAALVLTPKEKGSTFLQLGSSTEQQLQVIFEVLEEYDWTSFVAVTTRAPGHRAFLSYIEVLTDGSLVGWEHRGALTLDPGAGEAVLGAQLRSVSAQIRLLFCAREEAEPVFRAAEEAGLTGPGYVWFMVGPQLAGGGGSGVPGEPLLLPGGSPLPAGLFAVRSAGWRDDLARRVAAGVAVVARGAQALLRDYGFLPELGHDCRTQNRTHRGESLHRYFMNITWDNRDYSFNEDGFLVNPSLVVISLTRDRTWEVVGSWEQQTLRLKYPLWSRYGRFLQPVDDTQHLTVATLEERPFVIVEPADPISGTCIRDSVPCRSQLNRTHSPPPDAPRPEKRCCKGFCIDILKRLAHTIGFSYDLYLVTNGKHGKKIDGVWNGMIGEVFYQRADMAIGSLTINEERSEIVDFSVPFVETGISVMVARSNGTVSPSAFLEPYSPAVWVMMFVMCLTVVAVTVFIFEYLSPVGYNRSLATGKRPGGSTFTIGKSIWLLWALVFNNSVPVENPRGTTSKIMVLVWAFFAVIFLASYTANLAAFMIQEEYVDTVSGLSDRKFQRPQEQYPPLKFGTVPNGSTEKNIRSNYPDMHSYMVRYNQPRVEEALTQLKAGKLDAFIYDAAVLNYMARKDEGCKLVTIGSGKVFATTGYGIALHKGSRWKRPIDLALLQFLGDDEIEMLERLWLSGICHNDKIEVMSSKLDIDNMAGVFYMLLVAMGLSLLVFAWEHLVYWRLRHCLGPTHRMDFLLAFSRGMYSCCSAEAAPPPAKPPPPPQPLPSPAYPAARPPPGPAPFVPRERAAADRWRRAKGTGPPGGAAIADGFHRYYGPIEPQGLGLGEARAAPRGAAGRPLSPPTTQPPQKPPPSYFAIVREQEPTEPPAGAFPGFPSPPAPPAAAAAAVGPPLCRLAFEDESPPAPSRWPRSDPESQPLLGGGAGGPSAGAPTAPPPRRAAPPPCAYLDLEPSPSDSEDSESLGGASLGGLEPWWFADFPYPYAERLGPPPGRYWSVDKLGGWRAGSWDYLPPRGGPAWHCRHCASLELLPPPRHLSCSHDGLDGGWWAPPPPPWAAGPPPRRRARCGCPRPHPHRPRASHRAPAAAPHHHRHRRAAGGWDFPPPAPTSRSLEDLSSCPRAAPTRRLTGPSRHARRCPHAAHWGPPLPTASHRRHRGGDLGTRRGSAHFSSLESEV
Description: as §5, §6, §7

NR1011/NR2Bwt = target: T4, NR1011/NR2Bwt (Rattus norvegicus, UniProt P35439+Q00960); assay: NR2 chimera study, Xenopus oocytes, Example 7; type: cell-based; conditions: 100 μM PS; 300 μM NMDA; 50 μM Glycine
T4 construct: expressed in transfected cells; host or cells: Xenopus oocytes
Description: (§4) The chimeric receptors were generated by first introducing a series of silent restriction sites in both the NR2B and NR2D cDNA. The chimeric cDNAs were then constructed by replacing corresponding regions of one cDNA with that of the other. The silence site mutations were generated by a method involving PCR. […] This cassette was then ligated into the cDNA cut with the same two restriction enzymes.

NR1011/NR2Dwt = target: T5, NR1011/NR2Dwt (Rattus norvegicus, UniProt P35439+Q62645); assay: NR2 chimera study, Xenopus oocytes, Example 7; type: cell-based; conditions: 100 μM PS; 300 μM NMDA; 50 μM Glycine
T5 construct: expressed in transfected cells; host or cells: Xenopus oocytes
T5 sequence (Q62645 28-1323, other chains not shown): as above
Description: as §4

NR1001/NR2A = NR1001/NR2A (Rattus norvegicus, UniProt P35439+Q00959); assay: NMDA-induced currents of NR1 splice variants, Xenopus oocytes, Example 4; type: cell-based; parameters: expressed in transfected cells; host or cells: Xenopus oocytes injected with NR1001 and NR2A mRNA; conditions: NR1001/2A; 100 μM PS; 200 μM NMDA+10 μM glycine
Chain of NR1001/NR2A (Q00959 23-1464, other chains not shown): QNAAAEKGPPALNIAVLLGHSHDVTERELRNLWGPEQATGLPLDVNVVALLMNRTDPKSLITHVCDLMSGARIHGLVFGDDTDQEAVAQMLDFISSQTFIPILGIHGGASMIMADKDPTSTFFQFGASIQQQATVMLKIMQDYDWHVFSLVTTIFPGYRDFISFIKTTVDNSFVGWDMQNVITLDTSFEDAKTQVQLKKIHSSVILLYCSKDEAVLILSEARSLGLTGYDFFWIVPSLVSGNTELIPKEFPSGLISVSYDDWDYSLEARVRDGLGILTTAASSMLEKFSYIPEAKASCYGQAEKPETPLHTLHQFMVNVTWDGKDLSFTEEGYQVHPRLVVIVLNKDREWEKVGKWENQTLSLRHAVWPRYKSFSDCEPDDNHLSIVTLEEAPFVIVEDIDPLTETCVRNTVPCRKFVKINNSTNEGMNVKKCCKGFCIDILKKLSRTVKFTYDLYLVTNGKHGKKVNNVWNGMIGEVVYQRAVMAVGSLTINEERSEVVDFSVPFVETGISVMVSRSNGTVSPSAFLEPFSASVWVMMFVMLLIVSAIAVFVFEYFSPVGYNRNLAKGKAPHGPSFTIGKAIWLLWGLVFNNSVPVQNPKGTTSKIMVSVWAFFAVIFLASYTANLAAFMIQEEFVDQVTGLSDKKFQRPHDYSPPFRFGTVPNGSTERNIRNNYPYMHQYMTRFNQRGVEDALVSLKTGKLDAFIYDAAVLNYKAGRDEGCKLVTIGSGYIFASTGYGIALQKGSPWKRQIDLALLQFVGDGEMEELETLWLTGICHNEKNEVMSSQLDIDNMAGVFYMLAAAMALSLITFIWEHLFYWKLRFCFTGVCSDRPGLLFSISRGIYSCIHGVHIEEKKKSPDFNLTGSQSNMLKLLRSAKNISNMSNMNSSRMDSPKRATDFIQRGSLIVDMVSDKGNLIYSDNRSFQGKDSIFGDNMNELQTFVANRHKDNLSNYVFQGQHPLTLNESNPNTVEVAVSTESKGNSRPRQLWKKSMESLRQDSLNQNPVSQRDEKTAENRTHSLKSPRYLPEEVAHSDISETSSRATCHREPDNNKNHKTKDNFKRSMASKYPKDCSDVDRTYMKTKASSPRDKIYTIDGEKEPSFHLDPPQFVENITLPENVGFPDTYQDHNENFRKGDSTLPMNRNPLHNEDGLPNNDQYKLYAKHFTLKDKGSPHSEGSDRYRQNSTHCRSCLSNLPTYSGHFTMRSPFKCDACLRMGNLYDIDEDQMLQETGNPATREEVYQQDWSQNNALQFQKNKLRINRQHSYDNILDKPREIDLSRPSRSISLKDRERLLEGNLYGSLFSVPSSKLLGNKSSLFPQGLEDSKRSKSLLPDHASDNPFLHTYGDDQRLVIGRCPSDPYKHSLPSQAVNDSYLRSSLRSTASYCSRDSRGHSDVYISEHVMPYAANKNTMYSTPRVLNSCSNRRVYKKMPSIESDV
Description: as §1, §2, §3

NR1100/NR2A [3] = target: NR1100/NR2A (Rattus norvegicus, UniProt P35439+Q00959); assay: as above; type: cell-based; parameters: expressed in transfected cells; host or cells: Xenopus oocytes co-injected with NR1100 and NR2A cRNA; conditions: NR1100/2A; 100 μM PS; 200 μM NMDA+10 μM glycine
Description: as §1, §2, §3

[4] = system: primary cultures of rat hippocampal neurons; assay: NMDA-induced increase in [Ca2+]i, Fluo-3 AM; type: cell-based; conditions: 5 μM NMDA; steroid 100 μM (3α5β 50 μM)
Description: Principally neuronal cultures were prepared from hippocampal tissue of fetal Sprague-Dawley rats on day 18 of embryonic development, as previously described (Brewer et al., Brain Research 494: 65-74 (1989)). Briefly, hippocampal cells were dissociated by trituration in Ca^2+/Mg^2+-free Hank's basic salt solution (Gibco) supplemented with 4.2 mM bicarbonate, 1 mM sodium pyruvate, 20 mM HEPES, 3 mg/ml bovine serum albumin (BSA). Dissociated cells were then pelleted by centrifugation (500×g, 4 min). […] Cells were then plated onto poly-L-lysine-coated 24-well culture dishes (Nunclon) at a density of 15,000 cell/cm^2 and maintained in a humidified atmosphere containing 5% CO2/95% air at 37° C. After 48 h, nonneuronal cell division was inhibited by a 48 h exposure to 1 μM cytosine arabinoside. Cultures were subsequently maintained in serum-free DMEM plus defined components and were used for experiments 16 to 24 days after plating.
DMSO was also added to controls to maintain a constant final DMSO concentration of […].
All data are expressed as mean±standard error of the mean. Statistical significance was evaluated using 95% confidence limits unless otherwise noted.

wild-type NR1a/NR2A = target: T6, wild-type NR1a/NR2A (Rattus norvegicus, UniProt P35439+Q00959); assay: NMDA-induced currents, Xenopus oocytes, Example 5; type: cell-based; conditions: 100 uM steroid, 300 uM NMDA, 50 uM Glycine
T6 construct: expressed in transfected cells; host or cells: Xenopus laevis oocytes injected with in vitro transcribed mRNA
Description: as §5
Female, oocyte positive Xenopus laevis frogs were purchased from Xenopus I (Dexter, Mich). […] Oocytes were injected with 50 nL of RNA solutions using an electronic microinjector (Drummond Inc., Broomall, Pa.). […] The injected oocytes were used for experiments following 1-5 days of incubation in Barth's solution at 18-20° C.
The microelectrodes were fabricated with a programmed puller (Sutter Instrument Co., Calif.) from borosilicate glass capillaries and were filled with 3 M KCl solution. The resistance of filled microelectrodes was in the range of 1-3 MΩ. […] If not mentioned otherwise, during data acquisition oocytes were clamped at a holding potential of −70 mV. The membrane current was filtered at 500 Hz and sampled at 100 Hz. Drugs were applied using a gravity driven external perfusion system. The working ,volume of the recording chamber was 30 μl and the rate of the perfusion was 50 μl/sec. The drug application lasted 10 sec and was followed by a 60 sec wash. The data acquisition and external perfusion control were done using the SuperScopeII software package (GW Instruments, Mass.). All experiments were performed at room temperature (22-24° C.). […] The data are presented as mean±S.E.M. with number of experiments in parentheses.

[5] = system: NMDA receptor (chick spinal cord neurons); conditions: Park-Chung et al. 1997; cited from earlier work
NR1/NR2C (NR1100) = NR1/NR2C (NR1100) (Rattus norvegicus, UniProt P35439+Q00961); assay: cell-based
Description: Plasmids containing the NR1100 (NR1G) and NR2A cDNA inserts were kindly provided by Dr. Nakanishi (Kyoto University Faculty of Medicine, Kyoto, Japan). Plasmids containing the NR2B, NR2C and NR2D cDNA inserts were kindly provided by Dr. P. Seeburg (Heidelberg University, Heidelberg, Germany). Plasmids were linearized with appropriate restriction enzyme prior to in vitro transcription using the Message Machine kit (Ambion, Inc., Austin, Tex.).
Female, oocyte-positive Xenopus laevis frogs were purchased from Xenopus I (Dexter, Mich.). […] Oocytes were injected with 50 nL of RNA solutions using an electronic microinjector (Drummond Inc., Broomall, Pa.). […] The injected oocytes were used for experiments following 1-5 days of incubation in Barth's solution at 18-20° C.
The microelectrodes were fabricated from borosilicate glass capillaries with a programmed puller (Sutter Instrument Co., Calif.). Microelectrode resistance was 1-3 MΩ_when filled with 3 M KCl.
Except where otherwise stated, oocytes were clamped at a holding potential of −70 mV during data acquisition. The membrane current was filtered at 500 Hz and sampled at 100 Hz. Drugs were applied using a gravity-driven external perfusion system. The working volume of the recording chamber was 30 μl and the rate of the perfusion was 50 μl/sec. The drug application lasted 10 sec and was followed by 60 s wash. Data acquisition and external perfusion were controlled using custom-written software implemented in the SuperScope II development environment (GW Instruments, Mass.). All experiments were performed at room temperature of 22-24° C. Peak or steady-state current measurements were normalized and expressed as a fraction of the peak or steady-state control current measurements, which were performed before and after application of every single concentration of agonists or steroids.
Concentration-response data were analyzed by nonlinear regress ion using the logistic equation Response=Emax/(1+(EC50/c)^nH), where c is concentration, Emaxis the maximum response, nHis the Hill coefficient. The data are presented as mean±SEM. EC50values are averaged as logarithms (De Lean et al., Am. J. Physiol. 235: E97-E102 (1978))±the SEM of the log EC50. […] The pooled data were simultaneously fitted to the logistic equation, either with Emax and EC50 constrained to be identical in the presence and absence of PS, or allowing one or both to vary independently. […] This was regarded as indicating a significant treatment effect of PS, but the change in EC50and Emaxwas not considered significant. […] No attempt was made to test the generally small changes in nHfor statistical significance.

Molecule	onset of inhibition [1]	reduction in kainate-evoked responses ([1]; 100 μM PS, 100 μM kainate)	PS Emax (NR1001/NR2B)	PS nHill (NR1001/NR2B)	difference in mrc between NR1000/NR2A and NR1100/NR2A (NR1100/NR2A [2])	inhibition of NMDA-induced membrane currents (NR1/NR2C; 100 μM PS, […] μM NMDA, 10 μM glycine)	maximum inhibition (NR1/NR2C; PS 0.5 to 200 μM)	inhibition of NMDA-induced membrane currents (NR1/NR2D; 100 μM PS, 10 μM NMDA, 10 μM glycine)	maximum inhibition (NR1/NR2D; PS 0.5 to 200 μM)	potentiation of inward current (NR1011/NR2Bwt)	inhibition of inward current (NR1011/NR2Dwt)	maximum relative current (MRC) (NR1001/NR2A)	maximum relative current (MRC) (NR1100/NR2A [3])	reduction of NMDA-induced rise in [Ca2+]i [4]	percent decrease in maximum inward current (wild-type NR1a/NR2A)	modulation of NMDA-induced current [5]	EC50 (NR1/NR2C (NR1100))	Emax (NR1/NR2C (NR1100); read-out: 3α5βS Emax (% Change))
pregnenolone sulfate [PS]	< 10 s	49±3%	0.63 ± 0.07	1.34 ± 0.17	1.3 fold	32±3%	63±9%	29±2%	70±6%	78.36±7.89%	45.18±2.62%	1.73 and 1.72	1.73					
CC(=O)[C@H]1CC[C@H]2[C@@H]3CC[C@@H]4C[C@H](OS(=O)(=O)O)CC[C@]4(C)[C@H]3CC[C@]12C [3α5βS, 3α5β-pregnanolone sulfate]														32±5%	45.49±5.76%	strong inhibitors	12 µM	-99 ± 2%
